Measurements as given in patent publication US20060177474A1, “Agricultural and horticultural poison bait preparation” (priority 2005, published 2006).

Row | melting point [°C] | Compound
1 | 153 to 155 | Cc1cc(C(F)(C(F)(F)F)C(F)(F)F)ccc1NC(=O)c1cccc(Br)c1C(=O)NC(C)CS(C)(=O)=O (stereo not shown)
2 | 82 | Cc1cc(C(F)(C(F)(F)F)C(F)(F)F)ccc1N(C(=O)c1c(I)cccc1C(N)=O)C(C)CS(C)(=O)=O (stereo not shown) [compound 27, 3-iodo-N′-{2-methyl-4-[1,2,2,2-tetrafluoro-1-(trifluoromethyl)ethyl]phenyl}-N^2-(1-methyl-2-methylsulfonylethyl)phthalamide]
3 | 134 | Cc1cc(C(F)(C(F)(F)F)C(F)(F)F)ccc1NC(=O)c1cccc(I)c1C(=O)NC(C)C[S+](C)[O-] (stereo not shown) [compound 28, 3-iodo-N^1-{2-methyl-4-[1,2,2,2-tetrafluoro-1-(trifluoromethyl)ethyl]phenyl}-N^2-(1-methyl-2-methylsulfinylethyl)phthalamide]
4 | 155 to 156 | Cc1cc(C(F)(C(F)(F)F)C(F)(F)F)ccc1N(C(=O)c1cccc(Cl)c1C(N)=O)C(C)CS(C)(=O)=O (stereo not shown) [compound 37, 3-chloro-N^1-{2-methyl-4-[1,2,2,2-tetrafluoro-1-(trifluoromethyl)ethyl]phenyl}-N^1-(1-methyl-2-methylsulfonylethyl)phthalamide]
